Data: patent US20080275058A1, “N-Substituted-1H-Quinoline-2,4-Diones, Preparation Method Thereof, And Pharmaceutical Composition Containing The Same” (KOREA RESEARCH INSTITUTE OF CHEMICAL TECHNOLOGY, priority 2005, published 2008)
Read-outs that look alike come from different tables or passages of the source.

Assays:
hD3 = molecular target: T1, hD3 (Homo sapiens, UniProt P35462); experiment: Radioligand binding, dopamine D3 ([3H]spiperone); settings: Table 4; [3H]spiperone 1 nM; read-out: Binding affinity, IC50 (nM) D3
T1 construct: purchased BioSignal Packard Inc., Montreal, Canada
T1 sequence (P35462 whole entry): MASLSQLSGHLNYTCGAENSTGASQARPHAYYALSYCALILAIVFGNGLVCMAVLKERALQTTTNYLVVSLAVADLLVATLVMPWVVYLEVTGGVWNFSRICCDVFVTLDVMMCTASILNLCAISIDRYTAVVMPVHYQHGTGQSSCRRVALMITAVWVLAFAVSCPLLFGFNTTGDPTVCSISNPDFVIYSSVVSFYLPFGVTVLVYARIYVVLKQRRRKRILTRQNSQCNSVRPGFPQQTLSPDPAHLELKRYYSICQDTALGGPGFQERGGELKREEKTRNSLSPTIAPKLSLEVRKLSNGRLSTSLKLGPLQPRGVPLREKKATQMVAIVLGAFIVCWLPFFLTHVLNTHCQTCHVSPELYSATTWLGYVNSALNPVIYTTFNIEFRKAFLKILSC
How it was run: (§1)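 Membrane competition binding with [3H]spiperone (1 nM) for hD2L and hD3, or [3H]YM-09151-2 (0.06 nM) for hD4.2, each in receptor-specific Tris-HCl pH 7.4 buffer containing Mg2+/EDTA (D3 and D4 also with K+, Ca2+; D3 with 120 mM NaCl). Compounds were tested at 7-8 concentrations in duplicate, and IC50 was derived by nonlinear regression across three assays.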

D1 = D1 (Homo sapiens, UniProt P21728); experiment: Radioligand binding, dopamine D1; settings: Table 4; read-out: Binding affinity, IC50 (nM) D1
D1, sequence (P21728 whole entry): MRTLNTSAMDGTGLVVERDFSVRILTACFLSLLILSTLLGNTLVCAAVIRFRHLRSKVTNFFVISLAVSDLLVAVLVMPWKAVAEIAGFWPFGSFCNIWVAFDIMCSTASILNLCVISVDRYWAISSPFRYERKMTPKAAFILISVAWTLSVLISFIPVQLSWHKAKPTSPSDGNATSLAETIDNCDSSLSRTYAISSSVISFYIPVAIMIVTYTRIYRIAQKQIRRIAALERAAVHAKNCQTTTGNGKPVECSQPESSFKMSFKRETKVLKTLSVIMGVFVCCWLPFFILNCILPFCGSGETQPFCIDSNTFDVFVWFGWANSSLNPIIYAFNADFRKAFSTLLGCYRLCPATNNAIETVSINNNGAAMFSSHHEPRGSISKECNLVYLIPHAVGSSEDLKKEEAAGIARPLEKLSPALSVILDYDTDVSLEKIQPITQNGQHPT

hD2L = molecular target: T2, hD2L (Homo sapiens, UniProt P14416); experiment: Radioligand binding, dopamine D2 ([3H]spiperone); settings: Table 4; [3H]spiperone 1 nM; read-out: Binding affinity, IC50 (nM) D2
T2 construct: purchased BioSignal Packard Inc., Montreal, Canada
T2 sequence (P14416 whole entry): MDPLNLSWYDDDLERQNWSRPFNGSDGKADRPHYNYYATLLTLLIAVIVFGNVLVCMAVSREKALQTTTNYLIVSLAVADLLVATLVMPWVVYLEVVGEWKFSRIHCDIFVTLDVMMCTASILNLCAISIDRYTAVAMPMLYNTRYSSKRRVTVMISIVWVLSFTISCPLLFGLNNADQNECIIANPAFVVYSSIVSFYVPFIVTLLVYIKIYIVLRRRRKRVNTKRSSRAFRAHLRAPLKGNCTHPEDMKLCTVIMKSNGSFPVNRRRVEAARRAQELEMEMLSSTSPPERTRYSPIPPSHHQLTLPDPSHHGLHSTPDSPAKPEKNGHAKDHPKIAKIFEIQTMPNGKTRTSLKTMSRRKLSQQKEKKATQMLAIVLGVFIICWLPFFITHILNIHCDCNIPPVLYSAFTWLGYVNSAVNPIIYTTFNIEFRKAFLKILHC
How it was run: as §1

5-HT1a = molecular target: T3, 5-HT1a (Homo sapiens, UniProt P08908); experiment: Radioligand binding, 5-HT1a ([3H]8-OH-DPAT); settings: Table 4; [3H]8-OH-DPAT 0.5 nM; read-out: Binding affinity, IC50 (nM) 5-HT1a
T3 construct: purchased Euroscreen/BioSignal Packard Inc
T3 sequence (P08908 1-422): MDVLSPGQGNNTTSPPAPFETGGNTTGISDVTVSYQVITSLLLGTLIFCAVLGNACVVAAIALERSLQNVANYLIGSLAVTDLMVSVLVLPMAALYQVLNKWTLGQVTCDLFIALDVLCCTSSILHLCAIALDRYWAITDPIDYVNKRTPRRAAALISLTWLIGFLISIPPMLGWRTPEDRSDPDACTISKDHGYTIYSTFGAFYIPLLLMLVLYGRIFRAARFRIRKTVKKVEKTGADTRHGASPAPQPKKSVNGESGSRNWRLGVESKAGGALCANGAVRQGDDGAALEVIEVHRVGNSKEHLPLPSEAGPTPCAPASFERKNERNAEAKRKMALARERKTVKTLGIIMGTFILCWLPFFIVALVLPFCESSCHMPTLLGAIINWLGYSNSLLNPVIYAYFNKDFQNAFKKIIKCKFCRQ
How it was run: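 Binding was measured on commercial receptor membrane preparations, following the membrane supplier's own test protocol.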

5-HT7 = molecular target: T4, 5-HT7 (Homo sapiens, UniProt P34969); experiment: Radioligand binding, 5-HT7 ([3H]LSD); settings: Table 4; [3H]LSD 3 nM; read-out: Binding affinity, IC50 (nM) 5-HT7
T4 construct: purchased Euroscreen/BioSignal Packard Inc
T4 sequence (P34969 whole entry): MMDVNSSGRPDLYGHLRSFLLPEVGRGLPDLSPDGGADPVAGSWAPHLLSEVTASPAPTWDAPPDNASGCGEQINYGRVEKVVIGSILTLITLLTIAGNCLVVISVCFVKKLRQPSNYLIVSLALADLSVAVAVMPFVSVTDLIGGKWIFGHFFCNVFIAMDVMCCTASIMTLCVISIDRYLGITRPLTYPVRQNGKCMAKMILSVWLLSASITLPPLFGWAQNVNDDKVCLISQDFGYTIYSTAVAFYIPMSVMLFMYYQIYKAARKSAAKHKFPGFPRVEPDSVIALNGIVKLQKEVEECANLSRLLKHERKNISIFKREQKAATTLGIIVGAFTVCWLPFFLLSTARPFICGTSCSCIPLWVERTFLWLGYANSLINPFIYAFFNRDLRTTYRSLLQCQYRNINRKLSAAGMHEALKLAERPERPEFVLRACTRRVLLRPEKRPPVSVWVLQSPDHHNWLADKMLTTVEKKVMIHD

[1] = molecular target: T5, Human serotonin 5-HT6 receptor (Homo sapiens, UniProt P50406); experiment: [3H]LSD binding assay on cloned 5-HT6 receptor membranes
T5 construct: made in house; host or cells: insect Sf21 cells (baculovirus vector BacPAK8)
T5 sequence (P50406 whole entry): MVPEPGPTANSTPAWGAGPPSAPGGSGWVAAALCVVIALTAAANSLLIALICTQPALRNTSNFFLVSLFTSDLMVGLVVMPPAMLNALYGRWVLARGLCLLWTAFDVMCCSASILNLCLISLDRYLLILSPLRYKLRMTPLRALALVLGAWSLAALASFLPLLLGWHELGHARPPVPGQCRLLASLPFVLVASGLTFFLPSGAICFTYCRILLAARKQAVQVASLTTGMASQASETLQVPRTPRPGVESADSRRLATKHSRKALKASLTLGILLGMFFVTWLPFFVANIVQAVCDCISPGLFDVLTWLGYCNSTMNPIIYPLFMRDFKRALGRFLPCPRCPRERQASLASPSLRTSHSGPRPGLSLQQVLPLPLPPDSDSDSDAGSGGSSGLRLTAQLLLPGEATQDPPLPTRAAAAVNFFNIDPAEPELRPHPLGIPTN

5-HT2a = molecular target: T6, 5-HT2a (Homo sapiens, UniProt P28223); experiment: Radioligand binding, 5-HT2a ([3H]Ketanserin); settings: Table 4; [3H]Ketanserin 1 nM; read-out: Binding affinity, IC50 (nM) 5-HT2a
T6 construct: purchased Euroscreen/BioSignal Packard Inc
T6 sequence (P28223 whole entry): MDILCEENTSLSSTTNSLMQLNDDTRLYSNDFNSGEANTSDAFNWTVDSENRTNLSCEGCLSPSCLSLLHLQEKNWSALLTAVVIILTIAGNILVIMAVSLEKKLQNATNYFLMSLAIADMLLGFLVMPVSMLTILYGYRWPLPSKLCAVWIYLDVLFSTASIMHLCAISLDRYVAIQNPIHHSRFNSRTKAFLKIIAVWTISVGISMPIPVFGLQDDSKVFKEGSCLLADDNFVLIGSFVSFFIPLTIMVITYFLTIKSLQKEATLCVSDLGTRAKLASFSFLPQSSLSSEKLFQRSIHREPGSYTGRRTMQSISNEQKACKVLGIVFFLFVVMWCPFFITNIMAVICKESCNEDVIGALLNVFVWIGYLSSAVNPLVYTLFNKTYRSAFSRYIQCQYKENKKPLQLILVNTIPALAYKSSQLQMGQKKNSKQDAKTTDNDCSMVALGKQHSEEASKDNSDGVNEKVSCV

5-HT2c = molecular target: T7, 5-HT2c (Homo sapiens, UniProt P28335); experiment: Radioligand binding, 5-HT2c ([3H]Mesulergine); settings: Table 4; [3H]Mesulergine 1 nM; read-out: Binding affinity, IC50 (nM) 5-HT2c
T7 construct: purchased Euroscreen/BioSignal Packard Inc
T7 sequence (P28335 33-458): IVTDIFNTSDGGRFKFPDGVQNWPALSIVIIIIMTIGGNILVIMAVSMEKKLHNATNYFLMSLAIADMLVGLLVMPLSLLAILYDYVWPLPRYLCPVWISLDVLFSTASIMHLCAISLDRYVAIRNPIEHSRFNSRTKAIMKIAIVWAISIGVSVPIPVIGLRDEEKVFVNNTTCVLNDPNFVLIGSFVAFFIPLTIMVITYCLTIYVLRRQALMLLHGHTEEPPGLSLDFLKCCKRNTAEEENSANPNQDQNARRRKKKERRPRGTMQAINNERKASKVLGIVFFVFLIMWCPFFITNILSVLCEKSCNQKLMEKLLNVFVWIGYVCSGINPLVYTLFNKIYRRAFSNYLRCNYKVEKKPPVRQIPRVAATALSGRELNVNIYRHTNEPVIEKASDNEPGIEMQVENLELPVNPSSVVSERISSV

hD4.2 receptor = molecular target: T8, hD4.2 receptor (Homo sapiens, UniProt P21917, DEL265-296); experiment: Radioligand binding, dopamine D4 ([3H]YM-09151-2); settings: Table 4; [3H]YM-09151-2 0.06 nM; read-out: Binding affinity, IC50 (nM) D4
T8 construct: purchased BioSignal Packard Inc., Montreal, Canada
T8 sequence (P21917 with tags, fused parts or gaps DEL265-296): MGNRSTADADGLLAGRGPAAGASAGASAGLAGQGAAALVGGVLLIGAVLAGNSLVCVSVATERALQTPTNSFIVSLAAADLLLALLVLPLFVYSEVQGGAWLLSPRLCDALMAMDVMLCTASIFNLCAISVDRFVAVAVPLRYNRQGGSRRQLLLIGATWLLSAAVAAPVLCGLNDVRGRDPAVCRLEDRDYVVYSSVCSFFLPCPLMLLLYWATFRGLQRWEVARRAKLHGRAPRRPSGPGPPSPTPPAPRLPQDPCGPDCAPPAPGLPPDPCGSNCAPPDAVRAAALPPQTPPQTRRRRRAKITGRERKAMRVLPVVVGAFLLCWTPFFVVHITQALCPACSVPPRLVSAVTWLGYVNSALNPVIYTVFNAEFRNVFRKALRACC
How it was run: as §1

Rotarod deficit in mice = type: in vivo, mouse; settings: mouse, in vivo, po, unit printed as image, read-out: TD50 (median neurotoxic dose)
How it was run: (§2)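 Compounds suspended in 3% Tween 80 were given p.o. to mice 60 min before testing. Rotarod deficit (%) was the proportion of animals falling within 1 min from a 1 inch knurled rod turning at 6 rpm, scored at 60, 90 and 120 min after dosing.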

mice = experiment: Rotarod deficit in mice; type: in vivo, mouse
How it was run: as §2

[2] = Table 2, 1.87 nM [3H]LSD, 37 C, 60 min, read-out: IC50 (nM), binding affinity to the 5-HT6 receptor
[3] = Table 4, read-out: Binding affinity, IC50 (nM) 5-HT6

Compound	IC50 (hD3) [nM]	IC50 (D1) [nM]	IC50 (hD2L) [nM]	melting point [°C]	IC50 (5-HT1a) [nM]	IC50 (5-HT7) [nM]	IC50 [1, 2] [nM]	IC50 [1, 3] [nM]	binding affinity at 5-HT6 receptor labeled by [3H]LSD, in words ([1]; comment on Table 2)	IC50 (5-HT2a) [nM]	IC50 (5-HT2c) [nM]	IC50 (hD4.2 receptor) [nM]	TD50 at 120 min (Rotarod deficit in mice) [mg/kg]	Rotarod deficit (%) (mice; 200 p.o. (dose unit not given))	Rotarod deficit (%) (mice; 300 p.o. (dose unit not given))	Rotarod deficit (%) (mice; 400 p.o. (dose unit not given))
CN1CCN(c2cc(Cl)cc3c2C(=O)C(C)(c2ccccc2)C(=O)N3Cc2ccccc2)CC1 (stereo not shown) [Example 11, 1-Benzyl-7-chloro-3-methyl-5-(4-methyl-piperazin-1-yl)-3-phenyl-1H-quinoline-2,4-dione]	678	4670	844	138 to 140	2590	2200	1.4	1.4	significant affinities	1230	514	> 10000	> 400	0	0	0
CN1CCN(c2cc(Cl)cc3c2C(=O)C(C)(c2ccc(OCc4ccccc4)c(Br)c2)C(=O)N3Cc2ccccc2)CC1 (stereo not shown) [Example 12, 1-Benzyl-3-(4-benzyloxy-3-bromo-phenyl)-7-chloro-3-methyl-5-(4-methyl-piperazin-1-yl)-1H-quinoline-2,4-dione]	153	1240	6450	95 to 97	2520	136	9.2	9.2	–	95	1290	> 10000	> 400	0	0	0
CC1(c2ccc(I)cc2)C(=O)c2c(N3CCNCC3)cc(Cl)cc2N(Cc2ccccc2)C1=O (stereo not shown) [Example 21, 1-Benzyl-7-chloro-3-(4-iodo-phenyl)-3-methyl-5-piperazin-1-yl-1H-quinoline-2,4-dione]	1050	1620	1640	176 to 177	468	3340	6.9	6.9	–	553	1810	5870	> 400	0	0	0
CC1(c2ccc(O)cc2)C(=O)c2c(N3CCNCC3)cc(Cl)cc2N(Cc2cccc([N+](=O)[O-])c2)C1=O (stereo not shown) [Example 24, 7-Chloro-3-(4-hydroxy-phenyl)-3-methyl-1-(3-nitro-benzyl)-5-piperazin-1-yl-1H-quinoline-2,4-dione]	2330	4930	3000	252 to 253	> 10000	> 10000	14.5	14.5	–	5040	6090	> 10000	> 400	0	0	0
COc1ccc(C2(C)C(=O)c3c(N4CCNCC4)cc(Cl)cc3N(Cc3cccc(OC)c3)C2=O)cc1 (stereo not shown) [Example 27, 7-Chloro-1-(3-methoxy-benzyl)-3-(4-methoxy-phenyl)-3-methyl-5-piperazin-1-yl-1H-quinoline-2,4-dione]	2640	> 1000	> 1000	110 to 112	> 10000	> 1000	2.3	2.3	–	> 1000	> 1000	> 10000	> 400	0	0	0
CC1(c2ccc(O)cc2)C(=O)c2c(N3CCNCC3)cc(Cl)cc2N(Cc2cccc(O)c2)C1=O (stereo not shown) [Example 28, 7-Chloro-1-(3-hydroxy-benzyl)-3-(4-hydroxy-phenyl)-3-methyl-5-piperazin-1-yl-1H-quinoline-2,4-dione]	> 1000	> 10000	> 10000	229 to 230	> 10000	> 10000	3	3	–	> 10000	> 10000	> 10000	> 400	0	0	0
